We go through four compounds from ChEMBL document CHEMBL1201862, “PubChem BioAssay data set” (2004).

Among the test systems are 786-0; A549; CAKI-1; EKVX; HCT-116; LOX IMVI; M14; MCF7; MDA-MB-231; MDA-N; Malme-3M; NCI/ADR-RES; OVCAR-8; SF-539; SK-MEL-28; SK-MEL-2; SR; T47D; UACC-62; UO-31.
What all share (assay): inhibition of tumour cell growth, NCI panel, 48 h

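Following 48 hours of exposure in 96-well plates, responses at five concentrations were used to interpolate endpoints linearly. GI50: concentration for 50% inhibition of growth.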 Active and inactive are the calls of the source. No stated cut-off is given here; in the data, active = GI50 up to about 1.1 µM and inactive = higher. Where a SMILES comes first, the peptide text is derived from it. Bridges are numbered along the chain shown (N, C = ends). [ ]: non-standard residue; d: D form. The star is where a group is joined. ξ: configuration not given here. PhAc = O=C(Cc1ccccc1)*; ξP = O=C(O)C1CCCN1 A value given as a limit tells only on which side of the number the result lay.

As to `CCCc1nc(Cl)nc(Cl)c1Cl`, the GI50 was 0.127 µM (active) in the test on 786-0; 2.22 µM (inactive) in the test with A549; 0.251 µM (active) in the test with CAKI-1; 1.03 µM (active) in the test with EKVX; 0.259 µM (active) in the test with HCT-116; 0.0865 µM (active) with LOX IMVI. Besides, the GI50 with M14 is 0.336 µM (active); in the test with MCF7, 0.137 µM (active); in the test with MDA-MB-231, 0.665 µM (active); in the test with MDA-N it was 0.0234 µM (active); in the test on Malme-3M, 0.453 µM (active); with NCI/ADR-RES it was 0.32 µM (active). The GI50 was 0.456 µM (active) in the test with OVCAR-8; 1.52 µM (inactive) in the test with SF-539; 0.472 µM (active) in the test with SK-MEL-28; 0.291 µM (active) in the test with SK-MEL-2; < 0.0154 µM (active) in the test with SR; 0.857 µM (active) in the test on T47D. Also, the GI50 in the test on UACC-62 was 0.703 µM (active).
For `O=C(Cc1ccccc1)N[C@@H]1COC(=O)C2CCCN2C(=O)[C@@H]2CCCN2C1=O` (stereo partly specified) (PhAc-[dS]-Pro-[ξP]; ester 1-C), the GI50 in the test with 786-0, with A549, in the test with CAKI-1, in the test on EKVX, in the test with HCT-116 and in the test on LOX IMVI was > 100 µM (inactive) in each case. In addition, the GI50 in the test with M14, in the test on MCF7, in the test on MDA-MB-231, in the test on MDA-N, with Malme-3M and in the test with NCI/ADR-RES was > 100 µM (inactive) in each case. In addition, the GI50 in the test on OVCAR-8, with SF-539, with SK-MEL-28, with SK-MEL-2, in the test with SR and in the test with T47D was > 100 µM (inactive) each time. For the same compound, in the test with UACC-62, the GI50 was > 100 µM (inactive).
On to `Oc1ccccc1C(Sc1nc2ccccc2s1)Sc1nc2ccccc2s1`, for which the GI50 is > 100 µM (inactive) with 786-0; > 100 µM (inactive) with A549; 34.4 µM (inactive) in the test on CAKI-1; 23.4 µM (inactive) with EKVX; > 100 µM (inactive) in the test on HCT-116; 67.5 µM (inactive) with LOX IMVI. Also, the GI50 was > 100 µM (inactive) with M14; > 100 µM (inactive) in the test with MCF7; > 100 µM (inactive) with MDA-MB-231; > 100 µM (inactive) in the test on MDA-N; 28.4 µM (inactive) in the test with Malme-3M; 57.8 µM (inactive) with NCI/ADR-RES. Further, the GI50 with OVCAR-8 was 85.3 µM (inactive); with SK-MEL-28 it was > 100 µM (inactive); in the test with SK-MEL-2 it was > 100 µM (inactive); with SR, 43.7 µM (inactive); in the test on T47D, 19.3 µM (inactive); with UACC-62, 69.2 µM (inactive). For the same compound, the GI50 in the test with UO-31 is 6.55 µM (inactive).
As to `C=CCOc1ccc(C(/N=N\c2ccc(Cl)cc2)=N/NC(=O)c2ccccc2)cc1OC`, the GI50 with 786-0 was > 100 µM (inactive); in the test on A549, > 100 µM (inactive); in the test with CAKI-1, > 100 µM (inactive); in the test on EKVX, > 100 µM (inactive); in the test with HCT-116, 64.4 µM (inactive); in the test with LOX IMVI, 48 µM (inactive). In addition, the GI50 in the test on M14 is 73.5 µM (inactive); in the test on MCF7 it was > 100 µM (inactive); in the test with MDA-MB-231, > 100 µM (inactive); in the test on MDA-N it was 35 µM (inactive); in the test on Malme-3M, 51.3 µM (inactive); in the test with NCI/ADR-RES, 72.4 µM (inactive). Also, the GI50 is 37.5 µM (inactive) in the test on OVCAR-8; 19 µM (inactive) with SK-MEL-28; > 100 µM (inactive) with SK-MEL-2; > 100 µM (inactive) with SR; 22 µM (inactive) in the test with T47D; 23.8 µM (inactive) in the test with UACC-62. Besides, the GI50 in the test on UO-31 was 54.8 µM (inactive).
